The data set in a line: Human HepG2 cell viability assay in 384 well format. It is filed as toxicity, cell-based. The note with it: HepG2 cells, read-out: Inhibition. Set-up: dose 125 nL, time 70.5 hour; cytotoxicity at 70.5 h: concentration not given beside the values.
For `O=C(NCCc1c[nH]c2ccc(F)cc12)C1(n2cnnn2)CCCCC1`, the cytotoxicity at 70.5 h is -22.2%.

For `O=C(Cn1ncc2c(c1=O)CCCC2)Nc1cccc2[nH]ccc12`, the cytotoxicity at 70.5 h came to 6.81%.

As for `CNc1oc(-c2ccc(S(=O)(=O)N(C)C)o2)nc1C#N`, the cytotoxicity at 70.5 h amounted to 22.7%.

Consider `O=C(CC1CCCC1)Nc1ccc(-n2cc(Br)cn2)nc1`, for which the cytotoxicity at 70.5 h was -2.32%.

In the case of `CC(=O)Nc1ccc(Oc2ccc3c(c2)OCO3)nc1`, the cytotoxicity at 70.5 h was -12.3%.

For the compound `CC(C)C(=O)Nc1ccc(Oc2ccc3c(c2)OCO3)nc1`, the cytotoxicity at 70.5 h was -10.1%.

As for `O=C(COc1coc(CN2CCOCC2)cc1=O)Nc1ccc(Cl)cc1`, the cytotoxicity at 70.5 h is -17.6%.

On to `COCCn1ccc2c(NC(=O)C(C)C)cccc21`, for which the cytotoxicity at 70.5 h was -1.52%.

Regarding `COc1cccc2c1ccn2CCNC(=O)C1CCC1`, the cytotoxicity at 70.5 h was -13.3%.

For the compound `Cc1ccnc(NC(=O)C2(n3cnnn3)CCCCC2)c1`, the cytotoxicity at 70.5 h is -23.1%.

As for `O=C(NCC(=O)N1CCc2ccccc2C1)c1cnccn1`, the cytotoxicity at 70.5 h is -6.74%.

In the case of `O=c1cc2c(nn1CN1CCC(c3ccccc3)CC1)CCC2`, the cytotoxicity at 70.5 h is -17.6%.

For `CC(C)NC(=O)[C@H](C)NC(=O)N1CCN(c2ccc(Cl)cc2)CC1`, the cytotoxicity at 70.5 h is -15.6%.

Regarding `O=c1cc2c(nn1CN1CCSCC1)CCC2`, the cytotoxicity at 70.5 h was -19.6%.

With `COc1ccc2nnc(CCCC(=O)NCc3ccccc3OC)n2n1`, the cytotoxicity at 70.5 h is -15.5%.

For the compound `COc1ccc2c(c1)c(C(=O)Nc1nnn[nH]1)cn2C`, the cytotoxicity at 70.5 h is -13.5%.

Take `O=C(NCCc1ccccn1)C1(n2cnnn2)CCCCC1`: the cytotoxicity at 70.5 h came to 14.5%.

Turning to `COc1ccc(-n2ncc3c2NC(=O)CSC3CC(C)C)cc1` (configuration not stated), the cytotoxicity at 70.5 h is -19.5%.

In the case of `Cc1cc(C(=O)N2C[C@@H]3CN(S(C)(=O)=O)CCO[C@@H]3C2)c(C)o1`, the cytotoxicity at 70.5 h worked out at 19.5%.

For `CN(C)C(=O)N[C@@H]1CN(S(C)(=O)=O)[C@@H]2CCCO[C@@H]21`, the cytotoxicity at 70.5 h amounted to 47.9%.

Take `Cc1nc(C(=O)N2C[C@@H]3CN(S(C)(=O)=O)CCO[C@@H]3C2)cs1`: the cytotoxicity at 70.5 h is -1.34%.

Consider `Cc1noc(C)c1CN1CC2(CCCCN2c2cncnc2)CC1=O` (configuration not stated), for which the cytotoxicity at 70.5 h is -3.04%.

As for `Cc1ccc(C(=O)N2C[C@@H]3CN(S(C)(=O)=O)CCO[C@@H]3C2)s1`, the cytotoxicity at 70.5 h is 0.775%.

With `Cc1nc(-c2ccc(F)cc2)nc2c1CCN(C(=O)CN(C)C)CC2`, the cytotoxicity at 70.5 h was -1.65%.

On to `COc1ccc(CC(=O)N2CC[C@@H]3NC(=O)CC[C@@H]32)cc1`, for which the cytotoxicity at 70.5 h came out at 3.62%.

For `COc1cccc(CC(=O)N2CC[C@H]3[C@@H]2CCC(=O)N3C)c1`, the cytotoxicity at 70.5 h is 4.41%.

In the case of `COc1cc(N2CCCn3cnc(COCCO)c3C2)ncn1`, the cytotoxicity at 70.5 h is 0.488%.

Regarding `Cc1nc(N2CCCC2)nc2c1CCN(C(=O)CN(C)C)CC2`, the cytotoxicity at 70.5 h is -3.18%.

Turning to `CN(C)C(=O)N[C@@H]1CN(C2CCOCC2)[C@@H]2CCCO[C@@H]21`, the cytotoxicity at 70.5 h was -2.52%.

Turning to `O=C(NC1CCC1)[C@H]1C[C@@H]2[C@@H](C1)OCCN2CC1CC1`, the cytotoxicity at 70.5 h amounted to 0.808%.

Regarding `O=C(c1ccoc1)N1CCC2(CCC(=O)N2Cc2ccncc2)CC1`, the cytotoxicity at 70.5 h was determined as 5.56%.

For the compound `CN(C)C(=O)CO[C@@H]1CC[C@H]2[C@H]1OCCN2c1ncccn1`, the cytotoxicity at 70.5 h is 4.77%.

Consider `Cc1cccc(CN2Cc3[nH]nc(COCC4CC4)c3C2)n1`, for which the cytotoxicity at 70.5 h is 3.89%.

With `COc1cccc(CN2CCC3(CCN(c4ncc(C)cn4)CC3)C2)c1`, the cytotoxicity at 70.5 h stood at 1.49%.

On to `Cc1ccc(C(=O)N2C[C@@H]3CCCO[C@@H]3[C@H](N3CCOCC3)C2)cn1`, for which the cytotoxicity at 70.5 h was determined as 2.11%.

Regarding `COc1cccc(CN2CCC3(CC2)CCN(c2ncccn2)C3)c1`, the cytotoxicity at 70.5 h was 2.21%.

Regarding `COc1cc(N2CCCn3cnc(COC(C)C)c3C2)ncn1`, the cytotoxicity at 70.5 h came to 13.3%.

The values above are taken from ChEMBL document CHEMBL3507680, “University of Dundee, Gates Library screen for HepG2 cell viability”.
